Test results: paper PMC12700220, “Synthesis, photochemical and biological evaluation of novel photoswitchable glycomimetic ligands of Pseudomonas aeruginosa LecB” (RSC Advances, 2025)

How the values were obtained:
LecB [1] = biological target: T1, LecB (Pseudomonas aeruginosa, UniProt Q9HYN5); experiment: ITC after […] nm illumination; type: binding; parameters: N-terminal 6xHis-tagged LecB
LecB [2] = biological target: T1, LecB; experiment: (soak, […] Å) and ITC; type: binding; parameters: N-terminal 6xHis-tagged LecB (homotetramer)

T1 sequence (Q9HYN5 entry or part of it): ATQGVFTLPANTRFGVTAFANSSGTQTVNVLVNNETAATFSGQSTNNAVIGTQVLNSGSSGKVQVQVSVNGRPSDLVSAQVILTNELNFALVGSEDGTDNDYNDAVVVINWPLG

Row | Structure (SMILES) | Kd (LecB [1]) | Kd (LecB [2])
1 | C[C@@H]1O[C@H](CNS(=O)(=O)c2ccc(/N=N\c3ccccc3)cc2)[C@@H](O)[C@H](O)[C@@H]1O (mixture of isomers) [photofucose-2, cis-photofucose-2] | 4.71 ± 2.61 µM | –
2 | C[C@@H]1O[C@H](CNS(=O)(=O)c2ccc(/N=N/c3ccccc3)cc2)[C@@H](O)[C@H](O)[C@@H]1O [photofucose-2, 4-((E)-phenyldiazenyl)-N-(((2R,3S,4R,5S,6S)-3,4,5-trihydroxy-6-methyltetrahydro-2H-pyran-2-yl)methyl)benzenesulfonamide] | – | 1.82 ± 0.408 µM
